Results taken from patent publication US6410340B1, “Use of an 8.4 kDa protein as an immunophilin reagent in protein binding assays for immunosuppressive drugs” (Children's Research Institute, priority 2000, dated 2002).

Assays:
52 kDa immunophilin = details: Davis et al. 2000; cited from earlier work
5-8 kDa immunophilin = details: cited from earlier work
[1] = cited from earlier work; for fraction in the blood in the form of the parent compound: patients; for metabolites as share of all drug species in blood: rapamycin: trough blood samples
8.4 kDa immunophilin [2] = target: T1, 8.4 kDa immunophilin (Bos taurus, UniProt P62992); assay: Displacement of tritiated FK-506 from the 8.4 kDa immunophilin by RAP; assay type: binding, calf; details: displacement of tritiated FK-506 by RAP; read-out: calculated Kd
T1 construct: from tissue; host or cells: calf thymus
T1 sequence (P62992 1-74 limits assumed): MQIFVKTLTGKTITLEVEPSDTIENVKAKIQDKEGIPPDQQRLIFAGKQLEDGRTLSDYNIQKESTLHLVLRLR
Excerpt: An immunophilin protein binding assay (“IBA”) carried out in accordance with this invention can be performed by solution phase or solid phase methods. The basic principle underlying each method is the same, and is described in, e.g., Davis et al., Clin. Biochem. 33:1(2000) and the Soldin patents listed above. Briefly, in a competitive IBA, a competition equilibrium is set up between a tracer amount of labeled drug and the corresponding drug in unknown samples containing the drug or biologically-active metabolites for binding to specific binding sites on an immunophilin. Following attainment of equilibrium, the amount of labeled drug bound to the immunophilin is determined. The amount of labeled drug bound will be reduced in proportion to the amount of analyte in a biological sample being analyzed. The quantitative relationship between the reduction of immunophilin-bound labeled drug and the concentration of the analyte in the unknown sample is determined by reference to a standard calibration curve. […] The amount of labeled drug bound to an immunophilin need not be determined directly; it may be determined by subtracting from the total amount of label added […] in the solution at equilibrium. […]

8.4 kDa immunophilin [3] = target: T1, 8.4 kDa immunophilin; assay: Binding of [mebmt-beta-3H]-CsA to the 8.4 kDa immunophilin; set-up: species or system calf; details: too low to measure; dissociation constant could not be determined
Excerpt: A dissociation constant for [mebmt-beta-3H]-CsA with the 8.4 kDa immunophilin could not be determined, as the binding of this drug to the protein was too low to measure (0.13%).

8.4 kDa immunophilin [4] = target: T1, 8.4 kDa immunophilin; assay: Saturation analysis of tritiated FK-506 binding to calf thymus 8.4 kDa immunophilin (Scatchard, Hill plots); details: tritiated FK-506, calf thymus 8.4 kDa immunophilin, EBDA/LIGAND
Excerpt: Analytical data on purified immunophilins may be obtained conventionally. Association constants, specific binding activities, and numbers and types of binding sites can be obtained from Scatchard and Hill plots, using EBDA and LIGAND software. Isoelectric points (“pI”) can be obtained by isofocussing techniques. To obtain amino acid composition data, samples can be hydrolyzed by HCl gas in the presence of internal standards (e.g., norvaline and sarcosine), the products derivatized with a fluorescent reagent, and the derivatized amino acids separated on a Hewlett-Packard AMINO QUANT Analyzer. […]
An immunophilin protein binding assay (“IBA”) carried out in accordance with this invention can be performed by solution phase or solid phase methods. […] Following attainment of equilibrium, the amount of labeled drug bound to the immunophilin is determined. The amount of labeled drug bound will be reduced in proportion to the amount of analyte in a biological sample being analyzed. The quantitative relationship between the reduction of immunophilin-bound labeled drug and the concentration of the analyte in the unknown sample is determined by reference to a standard calibration curve. […] The amount of labeled drug bound to an immunophilin need not be determined directly; it may be determined by subtracting from the total amount of label added […] in the solution at equilibrium. […]

Compound | binding to 52 kDa immunophilin (52 kDa immunophilin) | binding to 5-8 kDa immunophilin (5-8 kDa immunophilin) | also measured
(C9-C23)-OH-sirolimus | all but the fourth metabolite substantially binds | all but the fourth metabolite substantially binds | –
CO[C@H]1C[C@@H]2CC[C@@H](C)[C@@](O)(O2)C(=O)C(=O)N2CCCC[C@H]2C(=O)O[C@H]([C@H](C)C[C@@H]2CC[C@@H](O)[C@H](OC)C2)CC(=O)[C@H](C)/C=C(\C)[C@@H](O)[C@@H](OC)C(=O)[C@H](C)C[C@H](C)/C=C/C=C/C=C/1C [RAP, rapamycin] | – | – | fraction in the blood in the form of the parent compound [1]: ½; metabolites as share of all drug species in blood [1]: at least 50%; Kd (8.4 kDa immunophilin [2]): 80 pM
(C1-C8 or C32-C36) OH sirolimus | substantially binds | substantially binds | –
cyclosporin A [CsA] | – | – | binding of the drug to the protein (8.4 kDa immunophilin [3]): 0.13%
C=CC[C@@H]1/C=C(\C)C[C@H](C)C[C@H](OC)[C@H]2O[C@@](O)(C(=O)C(=O)N3CCCC[C@H]3C(=O)O[C@H](/C(C)=C/[C@@H]3CC[C@@H](O)[C@H](OC)C3)[C@H](C)[C@@H](O)CC1=O)[C@H](C)C[C@@H]2OC [FK-506] | – | – | fraction in the blood in the form of the parent compound [1]: ¾; metabolites as share of all drug species in blood [1]: about 30%; Kd (8.4 kDa immunophilin [4]): 800 pM
7-0-demethyl sirolimus | substantially binds | substantially binds | –
41-0-demethyl sirolimus | substantially binds | substantially binds | –
32,41-0-demethyl sirolimus | substantially binds | substantially binds | –
